Test system: Ramos cells
Assay: Ramos systemic tumor cell model, survival
Assay type: in vivo, mouse
Conditions: second experiment
Protocol: In this example, the ability of an anti-CXCR4 human antibody to increase survival time of mice was examined using a Ramos systemic tumor cell model. In this assay, 1×10^6 Ramos cells/mouse were injected intravenously (IV) into each mouse on Day 0. The mice then received an intraperitoneal (IP) injection of a first dose of antibody on Day 1 (i.e., one day after IV administration of tumor cells) and received four more IP doses of antibody, on days 5, 8, 15 and 22 (mice treated with the positive control antibody were treated only on day 1). […] Dose response studies had previously found 15 mg/kg to be an effective dose of anti-CD19 (data not shown). Percent survival was measured at regular intervals between Day 0 and Day 50 post dosing (hind leg paralysis was used as the endpoint of the experiment). […] The median numbers of days of survival for the mice treated with either vehicle or the isotype control were 23 and 25.5 days, respectively, whereas the median number of days of survival of the mice treated with one dose of the anti-CD19 positive control was 39 days.
The median number of days of survival for the mice treated with the vehicle or the isotype controls were 23-24 days, whereas the median number of days of survival of the mice treated with one dose of the anti-CD19 positive control was 39 days.

Substance: BMS-936564: fully human anti-CXCR4 monoclonal antibody; VH SEQ ID NO: 25, VL SEQ ID NO: 29
- efficacy in prolonging mouse survival (15 mg/kg): highly efficacious in prolonging mouse survival
- percent of mice survived at end of experiment (five doses 15 mg/kg, 120 days after implantation): 100%

From US10428151B2, “Treatment of hematologic malignancies with an anti-CXCR4 antibody” (BRISTOL-MYERS SQUIBB COMPANY, priority 2011, dated 2019)
